The nature of data set [1]: Dose normalized Cmax in CD-1 mouse at 1 mg/kg, po administered as single dose and measured on day 1. In kind it is ADME, organism-based. The settings on record: in vivo, 24 h, time 1 day.
The nature of data set [2]: Apparent volume of distribution during terminal phase in CD-1 mouse at 3 mg/kg, po administered as single dose and measured over 24 hrs. It is filed as ADME, organism-based. The settings on record: in vivo, read-out: Vz/F.
The test system of the next data set is OCI-AML-3. The data set is described as follows: Induction of morphological changes in human OCI-AML-3 cells assessed as variations in nuclear:cytoplasmic ratio at 10 uM. It is filed as functional, cell-based.
Data set [3] has as its system KG-1. Nature of the data set: Induction of morphological changes in human KG-1 cells assessed as variations in nuclear:cytoplasmic ratio at 10 uM. In kind it is functional, cell-based.
Data set [4] is described as follows: Solubility of compound at pH 7. In kind it is physicochemical. The settings on record: buffer.
In another data set the test system is Kasumi 1. Nature of the data set: Induction of differentiation in human Kasumi 1 cells assessed as reduction in live cell number at 123 nM incubated for 4 days by acridine orange/DAPI staining based analysis. The settings on record: time 4.0 day. It is filed as functional.
The test system of data set [5] is THP-1. The data set is described as follows: Induction of morphological changes in human THP-1 cells assessed as appearance of granules and vacuoles at 10 uM. It is filed as functional, cell-based.
Data set [6] in a line: AUC (0 to 8 hrs) in CD-1 mouse at 1 mg/kg, po administered as repeated dose on day 1 and 4. The settings on record: in vivo, time 4 day. In kind it is ADME, organism-based.
Data set [7] in a line: Dose normalized Cmax in CD-1 mouse at 20 mg/kg, po administered as repeated dose on day 1 and 4. In kind it is ADME, organism-based. The settings on record: in vivo, 96 h, time 4 day.
Data set [8] is described as follows: Half life in CD-1 mouse at 1 mg/kg, po administered as repeated dose on day 1 and 4. It is filed as ADME, organism-based. The settings on record: in vivo, time 4 day.
The nature of data set [9]: Semi-thermodynamic aqueous solubility of compound. In kind it is physicochemical. The settings on record: buffer; read-out: Therm_solubility.
Data set [10] relates to THP-1. The data set is described as follows: Induction of differentiation in human THP-1 cells assessed as upregulation of CD11b response incubated for 4 days by flow cytometry analysis. The settings on record: THP-1, 96 h.
Data set [11] in a line: Dose normalized AUC (0 to 8 hrs) in CD-1 mouse at 3 mg/kg, po administered as single dose and measured over 24 hrs. In kind it is ADME, organism-based. The settings on record: in vivo.
The subject of data set [12] is KG-1. Nature of the data set: Induction of morphological changes in human KG-1 cells assessed as appearance of granules and vacuoles at 10 uM. In kind it is functional, cell-based.
The test system of data set [13] is KG-1. The data set is described as follows: Induction of morphological changes in human KG-1 cells assessed as variations in cell size and shape at 10 uM. In kind it is functional, cell-based.
The subject of data set [14] is KG-1. The data set is described as follows: Induction of morphological changes in human KG-1 cells assessed as variations in nuclear segmentation at 10 uM. In kind it is functional, cell-based.

In brackets after ≈: the same amount, converted by molar mass. Activity calls are given as the source filed them. The rule behind the calls is not given here.

Take `Cc1cc(F)ccc1-c1cc(NS(C)(=O)=O)c2ncc(-c3ccc4c(cnn4C)c3)n2c1`: the Cmax/dose in [1] amounted to 187 ng/mL; in data set [7] it was 39 ng/mL. In addition, the Vd/F in data set [2] amounted to 3.1 L/kg. Besides, the outcome in the data set on OCI-AML-3, in the data set on KG-1 [3], in the data set with Kasumi 1, with THP-1 [5], with KG-1 [12] and with KG-1 [13] was Active. The result in the data set on KG-1 [14] was Active. For the same compound, in [4], the solubility (commonly the dissolved amount per volume that the medium holds) is 21 µM (≈ 9.44 µg/mL). Besides, the AUC(0-t) – broadly, exposure summed from dosing to a finite time, without extrapolation to infinity – at 96 h in [6] stood at 731 ng·h/mL. For the same compound, the half-life (usually the time in which the quantity being followed falls by half) in data set [8] is 2.5 h. The solubility thermodynamic in [9] came to 21 µM (≈ 9.44 µg/mL). In the data set on THP-1 [10], the EC50 (commonly the concentration giving half of the maximal effect) worked out at 69 nM. This compound came in with an AUC/dose in data set [11] of 1021 ng·h/mL.

The record behind these values is ChEMBL document CHEMBL5620396, “Phenotypic screening identifies a trisubstituted imidazo[1,2-a]pyridine series that induces differentiation in multiple AML cell lines” (Eur J Med Chem, 2023).
